Measured values taken from patent US7771727B2, “Conjugates of therapeutic or cytotoxic agents and biologically active peptides” (The Administrators of the Tulane Educational Fund, priority 2002, dated 2010).
“Also recorded” adds a separate entry of the source. Read-outs that look alike come from different tables or passages of the source. Numbered stars: 1 amine (or outer) side, 2 acyl side, 3 side chain; on linkers, the order of the positions; unused ones are H or OH. Bridge positions count the residues as written; N and C are the ends. Square brackets hold non-standard residues; d marks the D form. Peptide text beside a SMILES is read from it. * marks the point of attachment. Camptothecin(20S-OCO) = CC[C@@]1(OC(=O)*)C(=O)OCc2c1cc1n(c2=O)Cc2cc3ccccc3nc2-1; NGly(2-(methylamino)ethyl) = CN(CCN(CC(=O)[*:2])[*:1])[*:3]; X1 = COc1ccc(/C=C\c2cc(OC)c(OC)c(OC)c2)cc1OC(=O)*; Gly(N-2-aminoethyl) = NCCNCC(=O)O; X2 = CN(C)CCN(CC(=O)[*:2])[*:1]; Gly(N(CH2)3NH2) = NCCCNCC(=O)O; Gly(N-CH2CH2OH) = O=C(O)CNCCO; Nle = CCCC[C@H](N)C(=O)O

Experiments:
[1] = test system: human neuroblastoma IMR32 cells (somatostatin receptor overexpression); test: MTT cytotoxicity assay, IMR-32 cells; conditions: for cytotoxic activity: 3 days
Procedure: The cytotoxic activities of these conjugates were measured using a standard MTT assay kit (Promega Corporation, Madison, Wis.). Each compound was incubated for 3 days with human neuroblastoma IMR32 cells (somatostatin receptor overexpression) at different concentrations in quadruplate and IC50's were generated from the dose-response curves (FIG. 2).

[2] = test system: GH release from monolayer cultures of rat pituitary cells; type: cell-based; conditions: read-out: Growth Hormone Inhibition IC50
in vitro = test: in vitro
Procedure: (§1) Each peptide conjugate was subjected to phosphate buffer and rat serum stability studies. The analogues were incubated in either 0.1 M phosphate buffer or fresh rat serum at 37° C. and aliquots were taken at different time points and examined by HPLC.

physchem = conditions: for Half Life Phosphate Buffer / half-life: buffer
Procedure: as §1

[3] = test system: NCI-H69 small cell lung carcinomas (expression of SSTR2); conditions: nude mice; doses far below the maximum tolerated equivalent doses of camptothecin alone
tumor = test: Preliminary tumor bearing animal studies; type: in vivo; conditions: repeated intraperitoneal administration
[4] = camptothecin: tertiary hydroxyl, ring position 20; combretastatin: phenolic hydroxyl; cited from earlier work
[5] = phosphate buffer, length of the experiment 50 h
[6] = Homo sapiens, IMR-32, 72 h, read-out: Cytotoxicity IC50, IMR-32 Cells

For CCCC[C@H](NC(=O)[C@@H](CO)NC(=O)CN(CCO)C(=O)O[C@]1(CC)C(=O)OCc2c1cc1n(c2=O)Cc2cc3ccccc3nc2-1)C(=O)N[C@H](Cc1ccc(O)cc1)C(=O)N[C@H](CO)C(=O)N[C@H]1CSSC[C@@H](C(=O)N[C@H](C(N)=O)[C@@H](C)O)NC(=O)[C@H]([C@@H](C)O)NC(=O)[C@H](CCCCN)NC(=O)[C@@H](Cc2c[nH]c3ccccc23)NC(=O)[C@H](Cc2ccccc2)NC1=O [Compound 5] ({Camptothecin(20S-OCO)}-[Gly(N-CH2CH2OH)][dS][Nle][dY][dS]CF[dW]KTCT-NH2; disulfide 6-11), the IC50 ([1]; human) was > 1000 nM and the IC50 [2] was 0.49 ± 0.1 nM.

With CCCC[C@H](NC(=O)[C@@H](CO)NC(=O)CN(CCCN)C(=O)O[C@]1(CC)C(=O)OCc2c1cc1n(c2=O)Cc2cc3ccccc3nc2-1)C(=O)N[C@H](Cc1ccc(O)cc1)C(=O)N[C@H](CO)C(=O)N[C@H]1CSSC[C@@H](C(=O)N[C@H](C(N)=O)[C@@H](C)O)NC(=O)[C@H]([C@@H](C)O)NC(=O)[C@H](CCCCN)NC(=O)[C@@H](Cc2c[nH]c3ccccc23)NC(=O)[C@H](Cc2ccccc2)NC1=O [Compound 4] ({Camptothecin(20S-OCO)}-[Gly(N(CH2)3NH2)][dS][Nle][dY][dS]CF[dW]KTCT-NH2; disulfide 6-11) the IC50 ([1]; human) was > 1000 nM, the IC50 ([2]; rat pituitary cells) was 0.26 ± 0.03 nM and the half-life (in vitro; rat, serum) was 72 h. The “rat serum stability” value (in vitro; rat, serum) was “most stable” and the “buffer stability” value (physchem; [5]) was “complete buffer stability”.

In the case of CCCC[C@H](NC(=O)[C@@H](CO)NC(=O)CN(CCN(C)C)C(=O)O[C@]1(CC)C(=O)OCc2c1cc1n(c2=O)Cc2cc3ccccc3nc2-1)C(=O)N[C@H](Cc1ccc(O)cc1)C(=O)N[C@H](CO)C(=O)N[C@H]1CSSC[C@@H](C(=O)N[C@H](C(N)=O)[C@@H](C)O)NC(=O)[C@H]([C@@H](C)O)NC(=O)[C@H](CCCCN)NC(=O)[C@@H](Cc2c[nH]c3ccccc23)NC(=O)[C@H](Cc2ccccc2)NC1=O [Compound 3] ({Camptothecin(20S-OCO)}-[X2][dS][Nle][dY][dS]CF[dW]KTCT-NH2; disulfide 6-11), the IC50 ([1]; human) is reported as 571 ± 48 nM, the IC50 [2] is reported as 0.3 ± 0.04 nM and the “rat serum stability” value (in vitro) is reported as “most stable”. For the same compound, the half-life (in vitro; rat, serum) was 59 h, the “buffer stability” value (physchem) was “complete buffer stability” and the “Half Life Phosphate Buffer” value (physchem) was “Stable”.

For CCCC[C@H](NC(=O)[C@@H](CO)NC(=O)CN(CCN)C(=O)Oc1cc(/C=C\c2cc(OC)c(OC)c(OC)c2)ccc1OC)C(=O)N[C@H](Cc1ccc(O)cc1)C(=O)N[C@H](CO)C(=O)N[C@H]1CSSC[C@@H](C(=O)N[C@H](C(N)=O)[C@@H](C)O)NC(=O)[C@H]([C@@H](C)O)NC(=O)[C@H](CCCCN)NC(=O)[C@@H](Cc2c[nH]c3ccccc23)NC(=O)[C@H](Cc2ccccc2)NC1=O [Compound 6, combretastatin-carbonyl-N-(2-aminoethyl)-glycine-D-Ser-Me-D-Tyr-D-Ser-cyclo[Cys-Phe-D-Trp-Lys-Thr-Cys]-Thr-amide] (X1-[Gly(N-2-aminoethyl)][dS][Nle][dY][dS]CF[dW]KTCT-NH2; disulfide 6-11), the “cytotoxic activity” value ([1]; IMR32 cells) was “most cytotoxic”, the IC50 ([1]; read-out: Cytotoxicity IC50, IMR-32 Cells, 3 days incubation, MTT assay) was 2.79 ± 0.33 nM and the IC50 ([2]; rat pituitary cells) was 0.31 ± 0.1 nM. The “Half-Life Rat Serum” value (in vitro; fresh rat serum, 37° C.) was 4 h, the half-life (in vitro; rat, serum) was 4 h and the half-life (physchem) was 30 h. For the same compound, the “conjugate that is free cytotoxin after 3 days” value (physchem; from stability data in buffer, after 3 days) was 50%.

For CCCC[C@H](NC(=O)[C@@H](CO)NC(=O)CN(CCNC)C(=O)O[C@]1(CC)C(=O)OCc2c1cc1n(c2=O)Cc2cc3ccccc3nc2-1)C(=O)N[C@H](Cc1ccc(O)cc1)C(=O)N[C@H](CO)C(=O)N[C@H]1CSSC[C@@H](C(=O)N[C@H](C(N)=O)[C@@H](C)O)NC(=O)[C@H]([C@@H](C)O)NC(=O)[C@H](CCCCN)NC(=O)[C@@H](Cc2c[nH]c3ccccc23)NC(=O)[C@H](Cc2ccccc2)NC1=O [Compound 2, camptothecin-carbonyl-N-(N-methyl-2-aminoethyl)-glycine-D-Ser-Nle-D-Tyr-D-Ser-cyclo[Cys-Phe-D-Trp-Lys-Thr-Cys]-Thr-amide] ({Camptothecin(20S-OCO)}-[NGly(2-(methylamino)ethyl)][dS][Nle][dY][dS]CF[dW]KTCT-NH2; disulfide 6-11), the “stability to cell media incubation conditions” value [1] was “very stable”, the IC50 ([1]; human) was 54.2 ± 6 nM and the IC50 [2] was 0.27 ± 0.02 nM. The “growth of transplanted NCI-H69 small cell lung carcinomas” value [3] was “significantly stabilize the growth”, the “Half-Life Rat Serum” value (in vitro; rat, serum) was 18 h and the half-life (in vitro; rat, serum) was 18 h. The “Half Life Phosphate Buffer” value (physchem) was 123 h, the half-life (physchem) was ~120 h and the “cytotoxic effect in the tumor” value (tumor) was “equally effective”.

In the case of CC[C@@]1(O)C(=O)OCc2c1cc1n(c2=O)Cc2cc3ccccc3nc2-1 [Camptothecin, reference compound], the “pKa of hydroxyl group” value [4] is listed as “approximately 18” and the IC50 [1, 6] is listed as 2.21 ± 0.44 nM.

For CCCC[C@H](NC(=O)[C@@H](CO)NC(=O)CN(CCN)C(=O)O[C@]1(CC)C(=O)OCc2c1cc1n(c2=O)Cc2cc3ccccc3nc2-1)C(=O)N[C@H](Cc1ccc(O)cc1)C(=O)N[C@H](CO)C(=O)N[C@H]1CSSC[C@@H](C(=O)N[C@H](C(N)=O)[C@@H](C)O)NC(=O)[C@H]([C@@H](C)O)NC(=O)[C@H](CCCCN)NC(=O)[C@@H](Cc2c[nH]c3ccccc23)NC(=O)[C@H](Cc2ccccc2)NC1=O [Compound 1, camptothecin-carbonyl-N-(2-aminoethyl)-glycine-D-Ser-Nle-D-Tyr-D-Ser-cyclo[Cys-Phe-D-Trp-Lys-Thr-Cys]-Thr-amide] ({Camptothecin(20S-OCO)}-[Gly(N-2-aminoethyl)][dS][Nle][dY][dS]CF[dW]KTCT-NH2; disulfide 6-11), the “cytotoxic potency relative to compound 2” value ([1]; IMR32 cells) was “seven times less potent than compound 2”, the “cytotoxic activity” value ([1]; IMR32 cells) was “next most potent; also recorded: high cytotoxicity” and the “stability to cell media incubation conditions” value ([1]; cell media) was “very stable”. It also gave an IC50 ([1]; human) of 374 ± 18 nM, an IC50 ([2]; rat pituitary cells) of 0.32 ± 0.02 nM and a half-life (in vitro; rat, serum) of 106 h. For the same compound, the “rat serum stability” value (in vitro; rat, serum) was “most stable”, the “buffer stability” value (physchem; [5]) was “complete buffer stability” and the “cytotoxic effect in the tumor” value (tumor) was “equally effective”.

For COc1ccc(C[C@@H](O)c2cc(OC)c(OC)c(OC)c2)cc1O [Combretastatin, reference compound], the “pKa of hydroxyl group” value [4] is listed as “approximately 10.3” and the IC50 [1, 6] is listed as 4.36 nM.
